Reference: patent US6440401B1, “2-phenyl-benzimidazolesulfonic acids as UV-B filters” (Merck Patent Gesellschaft Mit Beschraenkter Haftung, priority 2000, dated 2002)

Assay: UV absorption maximum
Type: physicochemical
Procedure: 108 parts of o-phenylenediamine are introduced into 500 parts of H2SO4 (>96%) and then 800 parts of oleum (65%) are added dropwise, the temperature being maintained at a maximum of 120° C. After 15 min, the mixture is cooled to 70° C. and 120 parts of benzoic acid are added. The mixture is heated for 2 h at 180° C. The mixture is slowly hydrolysed with 2 500 parts of water, the temperature being maintained below 10° C. The precipitate (crystals) is filtered off with suction, the crude product is suspended in 8 parts of water and dissolved with 32% sodium hydroxide solution at pH=7. The solution is stirred with activated carbon until colorless, and thereafter precipitation is induced using 96% H2SO4 by establishing a pH=1-2. 300 parts of 2-phenylbenzimidazole-4,6-disulfonic acid are obtained. The compound has an absorption maximum in the UV-B region at λmax=308 nm.

O=S(=O)(O)c1cc(S(=O)(=O)O)c2[nH]c(-c3ccccc3)nc2c1 [2-phenylbenzimidazole-4,6-disulfonic acid]
absorption maximum in the UV-B region, λmax: 308 nm
